# Data from ChEMBL document CHEMBL6092135, “Current development and structure-activity relationship study of berberine derivatives” (Bioorg Med Chem, 2024).
# How the values were obtained:
# Salmonella typhimurium = assay: Antimicrobial activity against Salmonella enterica subsp. enterica serovar Typhimurium LT2 assessed as inhibition of bacterial growth measured for 24 hrs by broth micro-dilution method; assay type: functional
# HeLa [1] = assay: Anticancer activity against human HeLa cells; assay type: functional, cell-based
# A549 [2] = assay: Anticancer activity against human A549 cells; assay type: functional, cell-based
# [3] = Antioxidant activity assessed as DPPH radical scavenging activity measured for 30 mins by spectrophotometric analysis; assay type: functional
# Ca-Ski = assay: Cytotoxicity against human Ca-Ski cells assessed as reduction in cell viability measured after 48 hrs by SRB assay; assay type: functional, cell-based
# HeLa [4] = assay: Cytotoxicity against human HeLa cells assessed as reduction in cell viability measured after 48 hrs by SRB assay; assay type: functional, cell-based
# Candida albicans [5] = assay: Antifungal activity against Candida albicans assessed as reduction in fungal growth incubated for 12 hrs by microdilution method; assay type: functional
# CCRF-CEM = assay: Antiproliferative activity against human CEM cells assessed as reduction in cell viability measured after 3 to 4 days by MTT assay; assay type: functional, cell-based
# DNA topoisomerase 1 = DNA topoisomerase 1 (Homo sapiens, UniProt P11387); assay: Inhibition of Topoisomerase 1 (unknown origin)
# Escherichia coli = assay: Antibacterial activity against Escherichia coli ATCC 25922 assessed as bacterial growth inhibition measured after 48 hrs by resazurin assay; assay type: functional
# [6] = test system: Mycobacterium tuberculosis; assay: Antimycobacterial activity against Mycobacterium tuberculosis H37Rv assessed as reduction in bacterial growth incubated for 7 days by resazurin based assay; assay type: functional; conditions: 168 h, time 7 day
# Plasmodium falciparum = assay: Antiplasmodial activity against Plasmodium falciparum 3D7 assessed as inhibition of parasite growth measured for 42 hrs by SYBR Green staining based fluorescence analysis; assay type: functional, organism-based; conditions: 3D7, 42 h
# HCT-116 = assay: Cytotoxicity against human HCT-116 cells assessed as reduction in cell viability incubated for 24 hrs by MTT assay; assay type: functional, cell-based; conditions: HCT-116, 24 h
# Listeria monocytogenes = assay: Antibacterial activity against Listeria monocytogenes ATCC 19111 assessed as reduction in bacterial growth incubated for 20 to 24 hrs by microbroth serial dilution assay; assay type: functional; conditions: time 20-24 hrs
# Enterovirus A71 = assay: Antiviral activity against human EV71 infected in human RD cells assessed as inhibition of cytopathic effect by microscopy based analysis; assay type: functional, organism-based; conditions: Enterovirus A
# Staphylococcus aureus [7] = assay: Antibacterial activity against Staphylococcus aureus ATCC 25923 assessed as reduction in microbial growth measured after 24 hrs by spectrophotometric method; assay type: functional
# HepG2 [8] = assay: Cytotoxicity against human HepG2 cells assessed as reduction in cell viability by MTT assay; assay type: functional, cell-based
# C6 = assay: Antiproliferative activity against rat C6 cells assessed as inhibition of cell growth incubated for 72 hrs by Sulforhodamine B assay; assay type: functional, cell-based; conditions: C6, 72 h
# BFTC-905 = assay: Antiproliferative activity against human BFTC-905 cells assessed as reduction in cell viability; assay type: functional, cell-based
# HT-29 = assay: Antiproliferative activity against human HT-29 cells assessed as reduction in cell viability incubated for 24 hrs by MTT assay; assay type: functional, cell-based; conditions: HT-29, 24 h
# Bacillus cereus = assay: Antibacterial activity against Bacillus cereus ATCC 27348 assessed as inhibition of bacterial growth incubated for 18 hrs by microdilution method; assay type: functional
# Enterococcus faecium = assay: Antibacterial activity against Enterococcus faecium ATCC 19434 assessed as reduction in microbial growth measured after 24 hrs by two-fold serial dilution method; assay type: functional
# Enterococcus faecalis = assay: Antibacterial activity against Enterococcus faecalis ATCC 29212 assessed as reduction in microbial growth after 16 hrs by broth microdilution method; assay type: functional
# Staphylococcus aureus [9] = assay: Antibacterial activity against Staphylococcus aureus ATCC 25923 assessed as reduction in bacterial growth incubated for 24 hrs by serial dilution method; assay type: functional
# Bacillus anthracis = assay: Antibacterial activity against Bacillus anthracis; assay type: functional
# Coxsackievirus B3 = assay: Antiviral activity against Coxsackievirus B3 infected in human HEp-2 cells assessed as inhibition of virus-induced cytopathic effect measured after 48 hrs by MTT assay; assay type: functional, organism-based; conditions: Enterovirus B, HEp-2, 48 h
# CEM-VCR = assay: Antiproliferative activity against human CEM-VCR cells assessed as reduction in cell growth; assay type: functional, cell-based
# [10] = Antiproliferative activity against human QGY-7701 cells assessed as reduction in cell growth; assay type: functional, cell-based; conditions: QGY7701
# SMMC-7721 = assay: Antiproliferative activity against human SMMC-7721 cells assessed as reduction in cell growth; assay type: functional, cell-based
# [11] = test system: Lewis lung carcinoma cell line; assay: Cytotoxicity against mouse Lewis lung carcinoma cell line; assay type: functional, cell-based
# HepG2 [12] = assay: Antiproliferative activity against human HepG2 cells assessed as reduction in cell growth; assay type: functional, cell-based
# A549 [13] = assay: Antiproliferative activity against human A549 cells assessed as reduction in cell viability incubated for 24 hrs by CCK-8 assay; assay type: functional, cell-based; conditions: A549, 24 h
# Candida albicans [14] = assay: Antifungal activity against Candida albicans ATCC 10231 assessed as reduction in fungal growth by NCCLS method; assay type: functional
# Aspergillus niger = assay: Antifungal activity against Aspergillus niger assessed as inhibition of fungal growth incubated for 48 hrs by CLSI protocol based analysis; assay type: functional
# Cryptococcus neoformans = assay: Antifungal activity against Cryptococcus neoformans assessed as fungal growth inhibition by CLSI based method; assay type: functional
# Chain of DNA topoisomerase 1 (P11387 whole entry): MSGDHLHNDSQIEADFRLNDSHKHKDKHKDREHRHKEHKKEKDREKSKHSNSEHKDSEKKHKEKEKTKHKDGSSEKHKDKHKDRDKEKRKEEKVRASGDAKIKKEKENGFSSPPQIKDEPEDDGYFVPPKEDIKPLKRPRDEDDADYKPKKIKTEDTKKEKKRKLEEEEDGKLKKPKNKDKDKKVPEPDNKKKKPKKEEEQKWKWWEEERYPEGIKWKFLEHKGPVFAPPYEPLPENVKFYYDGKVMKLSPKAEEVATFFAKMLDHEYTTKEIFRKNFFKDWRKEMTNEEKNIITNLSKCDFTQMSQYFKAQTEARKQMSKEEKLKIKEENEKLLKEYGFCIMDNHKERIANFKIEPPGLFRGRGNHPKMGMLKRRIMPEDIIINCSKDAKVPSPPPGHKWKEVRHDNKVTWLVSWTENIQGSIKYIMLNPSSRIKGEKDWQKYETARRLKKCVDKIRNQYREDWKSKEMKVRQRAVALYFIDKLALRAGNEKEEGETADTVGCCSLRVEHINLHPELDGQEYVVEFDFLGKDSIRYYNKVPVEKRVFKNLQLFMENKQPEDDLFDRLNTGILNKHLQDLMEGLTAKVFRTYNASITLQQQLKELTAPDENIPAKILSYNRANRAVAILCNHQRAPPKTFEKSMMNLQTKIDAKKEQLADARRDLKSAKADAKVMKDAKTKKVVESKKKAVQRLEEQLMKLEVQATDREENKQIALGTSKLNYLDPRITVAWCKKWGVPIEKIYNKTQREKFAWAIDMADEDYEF
smiles,measurement,setting,value
COc1cc(Cn2ccnc2)c2cc3[n+](cc2c1O)CCc1cc2c(cc1-3)OCO2.[Cl-],MIC,Salmonella typhimurium,1 µg/mL
COc1ccc2cc3[n+](cc2c1OCCn1nc(C)cc1C)CCc1cc2c(cc1-3)OCO2,IC50,HeLa [1],8.99 µM
same,IC50,A549 [2],8.99 µM
COc1cc(CN2CCN(c3ccc(Cl)cc3Cl)CC2)c2cc3[n+](cc2c1O)CCc1cc2c(cc1-3)OCO2,IC50,[3],19.8 µM
same,IC50,Ca-Ski,5.75 µM
same,IC50,HeLa [4],7.33 µM
COc1ccc2c(Cc3ccc(C(C)C)cc3)c3[n+](cc2c1O)CCc1cc2c(cc1-3)OCO2.[Cl-],MIC,Candida albicans [5],1 µg/mL
COc1ccc2c(CCCc3ccccc3)c3[n+](cc2c1OC)CCc1cc2c(cc1-3)OCO2,IC50,CCRF-CEM,0.21 µM
COc1cc(CN2CCN(c3cccc(Cl)c3Cl)CC2)c2cc3[n+](cc2c1O)CCc1cc2c(cc1-3)OCO2,IC50,[3],19.8 µM
same,IC50,Ca-Ski,5.75 µM
same,IC50,HeLa [4],7.33 µM
N=C(N)c1ccc(-c2ccc(-c3ccc(C(=N)N)cc3)o2)cc1 [FURAMIDINE],IC50,DNA topoisomerase 1,1.2 µM
COc1ccc2c(c1NS(=O)(=O)c1ccc(Cl)cc1)C[N+]1(S(=O)(=O)c3ccc(Cl)cc3)CCc3cc4c(cc3C1C2)OCO4 (stereo unspecified),MIC,Escherichia coli,0.5 µg/mL
COc1cc2c(cc1OC)C(c1ccccc1)N1CCc3cc4c(cc3C1=C2)OCO4.Cl (stereo unspecified),MIC,[6],1 µg/mL
COc1ccc2cc3[n+](cc2c1OCc1cn(-c2ccc(S(=O)(=O)N4CCOCC4)cc2)nn1)CCc1cc2c(cc1-3)OCO2.[Cl-],IC50,Plasmodium falciparum,0.2 µg/mL
COc1cc(CN2CCN(c3cccc(C)c3C)CC2)c2cc3[n+](cc2c1O)CCc1cc2c(cc1-3)OCO2,IC50,[3],19.8 µM
same,IC50,Ca-Ski,5.75 µM
same,IC50,HeLa [4],7.33 µM
COc1ccc2cc3[n+](cc2c1OCCn1nc(C)c(Cl)c1C)CCc1cc2c(cc1-3)OCO2,IC50,HeLa [1],8.99 µM
same,IC50,A549 [2],8.99 µM
COc1ccc2cc3[n+](cc2c1OCc1cn(-c2ccc(S(N)(=O)=O)cc2)nn1)CCc1cc2c(cc1-3)OCO2.[Cl-],IC50,Plasmodium falciparum,0.2 µg/mL
COc1ccc2cc3[n+](cc2c1OCc1cn(-c2ccc(S(=O)(=O)Nc4ccc(Cl)cc4)cc2)nn1)CCc1cc2c(cc1-3)OCO2.[Cl-],IC50,Plasmodium falciparum,0.2 µg/mL
COc1ccc2c(c[n+]3c4c2ccc2c5c(cc(c24)CC3)OCO5)c1OC(=O)c1ccccc1,IC50,HCT-116,0.47 µM
COc1cc(CN2CCN(c3ccccc3Cl)CC2)c2cc3[n+](cc2c1O)CCc1cc2c(cc1-3)OCO2.[Cl-],MIC,Listeria monocytogenes,200 µg/mL
COc1ccc2cc3[n+](cc2c1OCC(=O)OCc1ccccc1)CCc1cc2c(cc1-3)OCO2,IC50,Enterovirus A71,7.12 µM
COc1ccc2cc3[n+](cc2c1OCCn1cccn1)CCc1cc2c(cc1-3)OCO2,IC50,HeLa [1],8.99 µM
same,IC50,A549 [2],8.99 µM
CCn1cc(C(=O)O)c(=O)c2cc(F)c(N3CCNCC3)cc21 [NORFLOXACIN],MIC,Staphylococcus aureus [7],0.025 µg/mL
COc1ccc(N2CCN(Cc3cc(OC)c(O)c4c[n+]5c(cc34)-c3cc4c(cc3CC5)OCO4)CC2)c(OC)c1,IC50,[3],19.8 µM
same,IC50,Ca-Ski,5.75 µM
same,IC50,HeLa [4],7.33 µM
CCCCCCC1c2cc(OC)c(OC)cc2C=C2c3cc4c(cc3CCN21)OCO4.Cl (stereo unspecified),MIC,[6],1 µg/mL
CCCCCCCCCCCCc1c2[n+](cc3c(OC)c(OC)ccc13)CCc1cc3c(cc1-2)OCO3,IC50,HepG2 [8],0.77 µM
same,IC50,C6,0.77 µM
same,IC50,BFTC-905,0.77 µM
same,IC50,HT-29,0.77 µM
COc1cc(CN2CCN(c3cccc(F)c3F)CC2)c2cc3[n+](cc2c1O)CCc1cc2c(cc1-3)OCO2,IC50,[3],19.8 µM
same,IC50,Ca-Ski,5.75 µM
same,IC50,HeLa [4],7.33 µM
Br.COc1ccc2c(Cc3ccccc3-c3cc4cc([N+](=O)[O-])ccc4[nH]3)c3[n+](cc2c1OC)CCc1cc2c(cc1-3)OCO2,MIC,Bacillus cereus,3.12 µg/mL
same,MIC,Enterococcus faecium,3.12 µg/mL
same,MIC,Enterococcus faecalis,3.12 µg/mL
same,MIC,Staphylococcus aureus [9],3.12 µg/mL
same,MIC,Bacillus anthracis,3.12 µg/mL
COc1cc(CN2CCN(c3ccc(C)cc3C)CC2)c2cc3[n+](cc2c1O)CCc1cc2c(cc1-3)OCO2,IC50,[3],19.8 µM
same,IC50,Ca-Ski,5.75 µM
same,IC50,HeLa [4],7.33 µM
CCOC(=O)COc1c(OC)ccc2cc3[n+](cc12)CCc1cc2c(cc1-3)OCO2,IC50,Enterovirus A71,7.12 µM
O=C1O[C@H]([C@@H](O)CO)C(O)=C1O [ASCORBIC ACID],IC50,[3],61 µM
COc1ccc2cc3[n+](cc2c1)CCc1cc(OCCOCCN)c(OC)cc1-3,IC50,Coxsackievirus B3,3.08 µM
COc1cc(CN2CCN(c3ccc(F)cc3F)CC2)c2cc3[n+](cc2c1O)CCc1cc2c(cc1-3)OCO2,IC50,[3],19.8 µM
same,IC50,Ca-Ski,5.75 µM
same,IC50,HeLa [4],7.33 µM
COc1cc(CN2CCN(c3ccc(Cl)c(Cl)c3)CC2)c2cc3[n+](cc2c1O)CCc1cc2c(cc1-3)OCO2,IC50,[3],19.8 µM
same,IC50,Ca-Ski,5.75 µM
same,IC50,HeLa [4],7.33 µM
COc1ccc2cc3[n+](cc2c1OCCn1nc(C)c(Br)c1C)CCc1cc2c(cc1-3)OCO2,IC50,HeLa [1],8.99 µM
same,IC50,A549 [2],8.99 µM
CCCCCOC(=O)COc1c(OC)ccc2cc3[n+](cc12)CCc1cc2c(cc1-3)OCO2,IC50,Enterovirus A71,7.12 µM
CCCCCCCCc1c2[n+](cc3c(OC)c(OC)ccc13)CCc1cc3c(cc1-2)OCO3,IC50,CEM-VCR,0.02 µM
same,IC50,[10],0.02 µM
same,IC50,SMMC-7721,0.02 µM
same,IC50,[11],0.02 µM
same,IC50,HepG2 [12],0.02 µM
COc1ccc2cc3[n+](cc2c1OCc1cn(-c2ccc(S(=O)(=O)Nc4ccc(F)cc4)cc2)nn1)CCc1cc2c(cc1-3)OCO2.[Cl-],IC50,Plasmodium falciparum,0.2 µg/mL
CCCCCCN(CCCCCC)c1cc(OC)c(O)c2c[n+]3c(cc12)-c1cc2c(cc1CC3)OCO2,IC50,A549 [13],0.29 µM
COc1ccc2c(Cc3ccc(C(C)(C)C)cc3)c3[n+](cc2c1OC)CCc1cc2c(cc1-3)OCO2,MIC,Candida albicans [14],1.56 µg/mL
CCCOc1c(OC)cc(/C=C2\SC(=O)NC2=O)c2c1CN1CCc3cc4c(cc3C1C2)OCO4 (stereo unspecified),MIC,Staphylococcus aureus [7],0.008 µg/mL
COc1ccc2cc3[n+](cc2c1OC)CCc1cc2c(cc1-3)OCO2 [BERBERINE],IC50,[3],89.2 µM
same,MIC,Staphylococcus aureus [7],0.698 µg/mL
same,IC50,Ca-Ski,15.2 µM
same,IC50,HeLa [4],13.4 µM
COc1cc(CN2CCN(C(c3ccccc3)c3ccccc3)CC2)c2cc3[n+](cc2c1O)CCc1cc2c(cc1-3)OCO2.[Cl-],MIC,Listeria monocytogenes,200 µg/mL
COc1ccc2c(c1OS(=O)(=O)c1c(F)c(F)cc(F)c1F)CN1CCc3cc4c(cc3C1C2)OCO4 (stereo unspecified),IC50,DNA topoisomerase 1,1.05 µM
CCCCOc1c(OC)ccc2c(Cc3ccc(C(C)C)cc3)c3[n+](cc12)CCc1cc2c(cc1-3)OCO2.[Cl-],MIC,Aspergillus niger,0.25 µg/mL
same,MIC,Cryptococcus neoformans,0.25 µg/mL
